Results on 10 molecules are retold here after ChEMBL document CHEMBL1201862, “PubChem BioAssay data set” (2004).

Common to all, as to test: NCI tumour cell line growth inhibition, 48 h
In test [1] the test system is HCC 2998.
For test [2], the system named is RXF 393.
Test [3] concerns HCT-116.
Test [4] concerns Malme-3M.
Test [5] concerns MCF7.
In test [6] the test system is UACC-62.
Test [7] has as its system CAKI-1.
Test [8] concerns KM12.
The subject of test [9] is PC-3.
Test [10] has as its system OVCAR-3.
In test [11] the test system is CCRF-CEM.
Test [12] has as its system U-251.
The subject of test [13] is HOP-62.
In test [14] the test system is ACHN.
Test [15] concerns UO-31.
The test system of test [16] is SK-MEL-28.
Test [17] has as its system OVCAR-8.
Test [18] has as its system MDA-MB-231.
Test [19] concerns OVCAR-4.
The subject of test [20] is IGROV-1.

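Protocol summary: plate cells (96-well), add compound at 5 concentrations, incubate 48 h, interpolate endpoints linearly. Abbreviation: GI50, concentration required for 50% inhibition of growth.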 Calls of active or inactive are those of the source. No stated cut-off is given here; in the data, active = GI50 up to about 1.1 µM and inactive = higher.

As to `COc1cc(C2c3cc4c(cc3OC(N3CCCC3)C2C)OCO4)cc(OC)c1O` (configuration not stated), the GI50 in test [1] is 28.2 µM (inactive); in test [2], 7.46 µM (inactive); in [3], 9.98 µM (inactive); in test [4], 8.09 µM (inactive); in test [5], 9.93 µM (inactive); in [6] it was 5.16 µM (inactive). The GI50 in test [7] is 16.1 µM (inactive); in test [8], 6.59 µM (inactive); in [9], 20.8 µM (inactive); in test [10], 13.5 µM (inactive); in test [11], 15.1 µM (inactive); in [12], 11.6 µM (inactive). The GI50 in test [13] was 11.6 µM (inactive); in test [14], 28.6 µM (inactive); in test [15], 44.3 µM (inactive); in [16] it was > 43.9 µM (inactive); in [17], 24 µM (inactive); in [18], 19.4 µM (inactive). Besides, the GI50 is 59.6 µM (inactive) in [19] and 19.4 µM (inactive) in test [20].
On to `CC1OC(O[C@H]2C3C=CO[C@@H](OC4OC(CO)C(O)C(O)C4O)C3[C@@]3(COC(=O)/C=C/c4ccc(O)cc4)O[C@@H]23)C(O)C(O)C1O` (some centres not stated), for which the GI50 in [1], in [2], in test [3], in test [4], in [5] and in [6] was > 100 µM (inactive) throughout. For the same molecule, the GI50 in test [7], in [8], in test [9], in [10], in [12] and in test [13] was > 100 µM (inactive) each time. Also, the GI50 in test [14], in test [15], in test [16], in test [17], in [18] and in test [19] was > 100 µM (inactive) in each case. For the same molecule, in test [20], the GI50 was > 100 µM (inactive).
As for `COc1cccc(C2ON=C(c3ccccc3)N2C23CC4CC(CC(C4)C2)C3)c1` (configuration not stated), the GI50 in [1], in test [2], in test [3], in test [4], in test [5] and in test [6] was > 10 µM (inactive) in each case. Further, the GI50 in test [7] was > 10 µM (inactive); in test [8], > 10 µM (inactive); in test [9], 9.35 µM (inactive); in test [10], 9.04 µM (inactive); in test [11], > 10 µM (inactive); in [12] it was > 10 µM (inactive). Besides, the GI50 in [13] was > 10 µM (inactive); in test [14], > 10 µM (inactive); in test [16], > 10 µM (inactive); in [17], > 10 µM (inactive); in test [18], > 10 µM (inactive); in [19], 5.46 µM (inactive). The GI50 in [20] is > 10 µM (inactive).
Take `O=C1CSC(c2ccccc2)N1c1nc2cc3sc(N4C(=O)CSC4c4ccccc4)nc3cc2s1` (configuration not stated): the GI50 in [1] is > 93.3 µM (inactive); in test [2], > 100 µM (inactive); in test [3], 24.6 µM (inactive); in [4] it was > 87.7 µM (inactive); in test [5], 12.9 µM (inactive); in test [6] it was 56.8 µM (inactive). The GI50 was 39.5 µM (inactive) in test [7]; 17.5 µM (inactive) in [8]; 48.4 µM (inactive) in [9]; 36.6 µM (inactive) in test [10]; 4.35 µM (inactive) in test [11]; 38.2 µM (inactive) in [12]. The GI50 in test [13] was > 100 µM (inactive); in test [14] it was 35.6 µM (inactive); in test [15] it was 40.6 µM (inactive); in test [16], > 100 µM (inactive); in [17], 70.8 µM (inactive); in test [18], 68.7 µM (inactive). Also, the GI50 in test [19] is 60.1 µM (inactive); in [20] it was 23.4 µM (inactive).
Consider `COc1ccc(C(Nc2ncccn2)c2cc3c(cc2O)OCO3)cc1` (configuration not stated), for which the GI50 in test [1] was 21.7 µM (inactive); in test [2], 17.9 µM (inactive); in test [3] it was 29.4 µM (inactive); in test [4], 26.1 µM (inactive); in test [5] it was 23.5 µM (inactive); in [6] it was 32.4 µM (inactive). Further, the GI50 in test [7] is 20.3 µM (inactive); in test [8], 17.9 µM (inactive); in test [9], 19.5 µM (inactive); in [10], 17.3 µM (inactive); in test [12], 15.4 µM (inactive); in test [13] it was 22.4 µM (inactive). In addition, the GI50 in [14] was 41.8 µM (inactive); in [15], 17.1 µM (inactive); in test [16], 22.3 µM (inactive); in test [17] it was 19.2 µM (inactive); in test [18], 21.3 µM (inactive); in test [19], 42.8 µM (inactive). For the same molecule, in test [20], the GI50 is 23 µM (inactive).
Turning to `COc1ccc(/C=C/C2=NN(c3cccc(S(=O)(=O)O)c3)C3(C2)SCC(=O)N3c2nc3ccccc3s2)cc1` (configuration not stated), the GI50 is > 100 µM (inactive) in test [1]; > 100 µM (inactive) in test [2]; > 100 µM (inactive) in [3]; > 100 µM (inactive) in test [4]; 46.8 µM (inactive) in [5]; 54.3 µM (inactive) in test [6]. Further, the GI50 in test [7] was > 100 µM (inactive); in test [8] it was > 100 µM (inactive); in test [9] it was 68.7 µM (inactive); in test [11] it was 17.3 µM (inactive); in test [12] it was 46.2 µM (inactive); in test [14], 69 µM (inactive). For the same molecule, the GI50 in [15] is 51.1 µM (inactive); in test [16], > 100 µM (inactive); in test [17] it was 60.7 µM (inactive); in test [18] it was 67 µM (inactive); in test [19] it was 53.1 µM (inactive); in test [20], 30.8 µM (inactive).
`COc1cc(/C=C2/C[C@H]3[C@@H]4CCC5=CC(=O)CC[C@]5(C)[C@H]4CC[C@]3(C)NC2=O)cc(OC)c1OC`: the GI50 was 21.1 µM (inactive) in test [1]; 12.5 µM (inactive) in [2]; 26.2 µM (inactive) in test [3]; 26.7 µM (inactive) in [4]; 17.3 µM (inactive) in [5]; 23.1 µM (inactive) in test [6]. The GI50 in test [7] is 25.9 µM (inactive); in test [8], 26.7 µM (inactive); in test [9], 21.1 µM (inactive); in test [10] it was 43.7 µM (inactive); in test [11] it was 20.8 µM (inactive); in test [12], 19.5 µM (inactive). In addition, the GI50 in test [13] is 27.9 µM (inactive); in [14], 26.4 µM (inactive); in [15] it was 0.9 µM (active); in test [16] it was 29 µM (inactive); in test [17] it was 23.7 µM (inactive); in test [18], 19.7 µM (inactive). Besides, the GI50 is 39.4 µM (inactive) in test [19] and 24.7 µM (inactive) in [20].
`[N-]=[N+]=Nc1ccc2c(c1)Sc1ccccc1N2CCCCN1CCN(Cc2ccc(C(=O)c3ccc(CSCC(N)C(=O)O)cc3)cc2)CC1` (configuration not stated): the GI50 in [1] was 24.9 µM (inactive); in test [2], 46.7 µM (inactive); in test [3] it was 15.2 µM (inactive); in [4] it was > 10 µM (inactive); in [5], 16.4 µM (inactive); in [6], 11.3 µM (inactive). For the same molecule, the GI50 in test [7] is 20.7 µM (inactive); in test [8], 1.57 µM (inactive); in test [9], 43.5 µM (inactive); in test [10], 26.9 µM (inactive); in test [11], 14.3 µM (inactive); in [12], 11.1 µM (inactive). Besides, the GI50 in [13] was 23.9 µM (inactive); in [14] it was 31.6 µM (inactive); in test [15], 37.4 µM (inactive); in [16], 2.01 µM (inactive); in [18], 13.6 µM (inactive); in [19], > 100 µM (inactive). Besides, the GI50 in test [20] is 13.5 µM (inactive).
As for `Cc1cc2nn(C3CCCCO3)nc2cc1C` (configuration not stated), the GI50 in test [1], in test [2], in [3], in test [4], in [5] and in test [6] was > 100 µM (inactive) each time. Besides, the GI50 in test [7], in [8], in [9], in test [10], in [11] and in [12] was > 100 µM (inactive) throughout. Besides, the GI50 was > 100 µM (inactive) in test [13]; > 100 µM (inactive) in test [14]; 75.7 µM (inactive) in [15]; > 100 µM (inactive) in test [17]; > 100 µM (inactive) in test [18]; > 100 µM (inactive) in test [19]. Further, in [20], the GI50 is > 100 µM (inactive).
With `CCCCCCCCCCCCCCCCCC(=O)OCC(COC1OC(COP(=O)(O)O)C(O)C(O)C1O)OC(=O)CCCCCCCCCCCCCCCCC` (configuration not stated), the GI50 was 7.29 µM (inactive) in [1]; 8.95 µM (inactive) in test [2]; 8.83 µM (inactive) in test [3]; 7.52 µM (inactive) in test [4]; 8.38 µM (inactive) in [5]; 8.57 µM (inactive) in test [6]. For the same molecule, the GI50 in test [7] was 9.73 µM (inactive); in [8], 6.27 µM (inactive); in test [9], 7.62 µM (inactive); in test [10], 8.87 µM (inactive); in [11], 4.95 µM (inactive); in test [12], 6.71 µM (inactive). Moreover, the GI50 in test [13] was 8.26 µM (inactive); in test [14], 6.41 µM (inactive); in [16], 9.98 µM (inactive); in [17], 7.35 µM (inactive); in test [18], 3.04 µM (inactive); in [19], 7.41 µM (inactive). For the same molecule, the GI50 in test [20] is 4.02 µM (inactive).
